This is an account of results in PubChem BioAssay (NCI).

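In this assay, cells in 96-well plates receive the compound at five concentrations for 48 hours. Endpoints are linearly interpolated between the surrounding concentrations. Abbreviation: GI50, concentration required for 50% inhibition of growth. TGI is the concentration that stops growth completely.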

Among the test systems are IGROV1 ovarian; SN12C renal; RPMI-8226 leukemia; SW-620 colon; NCI-H23 lung; COLO 205 colon; CCRF-CEM leukemia; A549 NSCLC; OVCAR-8 ovarian; SK-OV-3 ovarian.
Assay in all cases: DTP human tumour cell line panel, 48 h

As to `CC1(C)COC(c2ccc(C(F)(F)F)cc2C(O)c2ccc3ccccc3c2)=N1` (centres undefined), the GI50 with IGROV1 ovarian was above 100 µM; in the assay with SN12C renal it was above 100 µM; in the assay on SW-620 colon, above 100 µM; in the assay with NCI-H23 lung it was above 10 µM; in the assay with COLO 205 colon it was above 100 µM; in the assay with CCRF-CEM leukemia, above 100 µM. The GI50 was above 10 µM with A549 NSCLC, above 100 µM with OVCAR-8 ovarian and above 100 µM in the assay with SK-OV-3 ovarian. The total growth inhibition concentration (TGI) with IGROV1 ovarian, with SN12C renal, in the assay with RPMI-8226 leukemia, in the assay with SW-620 colon, with NCI-H23 lung and in the assay on COLO 205 colon was above 100 µM each time. The TGI in the assay with CCRF-CEM leukemia, in the assay with A549 NSCLC, with OVCAR-8 ovarian and in the assay with SK-OV-3 ovarian was above 100 µM in each case.

Consider `Cc1nc2c(nc1C)C(=O)c1ccccc1C2=O`, for which the TGI in the assay on IGROV1 ovarian was 27.2 µM; in the assay with SN12C renal, 6.4 µM; in the assay on RPMI-8226 leukemia, 45.9 µM; in the assay on SW-620 colon, 10.1 µM; in the assay with NCI-H23 lung it was 2.59 µM; with COLO 205 colon, 5.57 µM. The TGI in the assay on CCRF-CEM leukemia worked out at 46.9 µM; in the assay with A549 NSCLC, 3.41 µM; in the assay with OVCAR-8 ovarian, 42.9 µM; in the assay on SK-OV-3 ovarian, 82.6 µM.

As to `O=C1C2=C(SCCS2)C(=O)c2ccccc21`, the concentration for total growth inhibition (TGI) came out at 3.17 µM with IGROV1 ovarian; 3.39 µM with SN12C renal; 5.35 µM in the assay with RPMI-8226 leukemia; 3.68 µM with SW-620 colon; 3.34 µM in the assay with NCI-H23 lung; 2.96 µM with COLO 205 colon. Moreover, the TGI in the assay with CCRF-CEM leukemia was 4.2 µM; in the assay on A549 NSCLC it was 3.83 µM; in the assay on OVCAR-8 ovarian, 3.04 µM; in the assay on SK-OV-3 ovarian, 3.12 µM.

Consider `Clc1cccc(Cc2cn3cc(-c4ccccc4)nc3s2)c1Cl`, for which the GI50 with IGROV1 ovarian was 31.4 µM; in the assay on SN12C renal it was above 100 µM; in the assay on RPMI-8226 leukemia, above 100 µM; in the assay with SW-620 colon, above 100 µM; with NCI-H23 lung, 60.7 µM; in the assay on COLO 205 colon it was above 100 µM. In addition, the GI50 with CCRF-CEM leukemia is above 100 µM; with A549 NSCLC, 27.2 µM; in the assay with OVCAR-8 ovarian, 23.5 µM; in the assay on SK-OV-3 ovarian it was 10.3 µM. The TGI in the assay with IGROV1 ovarian, in the assay on SN12C renal, with RPMI-8226 leukemia, in the assay on SW-620 colon, in the assay with NCI-H23 lung and with COLO 205 colon was above 100 µM throughout. The TGI in the assay with CCRF-CEM leukemia was above 100 µM; with A549 NSCLC it was above 100 µM; in the assay with OVCAR-8 ovarian, above 100 µM; in the assay on SK-OV-3 ovarian, 97.6 µM.

Consider `O=C(N/C(=C\c1cc(Cl)ccc1Cl)c1nc2[nH]c(=S)[nH]c(=O)c2[nH]1)c1ccccc1`, for which the TGI in the assay with IGROV1 ovarian is above 70.6 µM; with SN12C renal, above 66.6 µM; in the assay with RPMI-8226 leukemia it was 42.7 µM; in the assay on SW-620 colon it was 36.5 µM; in the assay with NCI-H23 lung, above 65.8 µM; in the assay on COLO 205 colon, above 100 µM. Also, the TGI in the assay with CCRF-CEM leukemia was 69.7 µM; with A549 NSCLC, above 100 µM; with OVCAR-8 ovarian, above 71.8 µM; in the assay with SK-OV-3 ovarian it was above 100 µM.

On to `CCOC(=O)c1ncn2c1[nH]c(=S)c1ccccc12`, for which the TGI in the assay with IGROV1 ovarian was above 100 µM; in the assay on SN12C renal, above 100 µM; with RPMI-8226 leukemia it was above 100 µM; in the assay on SW-620 colon, 62 µM; in the assay with NCI-H23 lung it was above 100 µM; in the assay with COLO 205 colon, above 100 µM. For the same compound, the TGI with CCRF-CEM leukemia, in the assay on A549 NSCLC, with OVCAR-8 ovarian and in the assay on SK-OV-3 ovarian was above 100 µM each time.

Turning to `COc1ccc(/C=C\c2cc(OC)c3c(c2)OCO3)c(O)c1O`, the TGI in the assay with IGROV1 ovarian came out at 20.9 µM; in the assay with SN12C renal, 41.4 µM; in the assay on RPMI-8226 leukemia, 18.2 µM; with SW-620 colon, 26.1 µM; in the assay on NCI-H23 lung, 22.3 µM; with COLO 205 colon it was 45.1 µM. Besides, the total growth inhibition concentration (TGI) is 14.3 µM in the assay with CCRF-CEM leukemia, above 100 µM in the assay on A549 NSCLC, 32.5 µM in the assay on OVCAR-8 ovarian and above 77 µM with SK-OV-3 ovarian.

As for `CN(C)c1ccc(-c2cc(-c3ccc(Nc4nc(Nc5ccc(Cl)cc5)nc(Nc5ccc(Cl)cc5)n4)cc3)no2)cc1`, the GI50 was 2.06 µM in the assay with IGROV1 ovarian; 9.63 µM with SN12C renal; 2.6 µM with RPMI-8226 leukemia; 6.28 µM in the assay with SW-620 colon; 6.41 µM in the assay with NCI-H23 lung; 2.89 µM in the assay on COLO 205 colon. The GI50 in the assay on CCRF-CEM leukemia was 2.34 µM; in the assay with A549 NSCLC it was 5.12 µM; with OVCAR-8 ovarian, 5.91 µM; in the assay with SK-OV-3 ovarian it was 20 µM. For the same compound, the concentration for total growth inhibition (TGI) was 15 µM in the assay with IGROV1 ovarian; 61 µM with SN12C renal; 17 µM in the assay with RPMI-8226 leukemia; above 100 µM in the assay on SW-620 colon; 35.8 µM in the assay with NCI-H23 lung; 16 µM in the assay with COLO 205 colon. The TGI in the assay with CCRF-CEM leukemia was determined as 6.47 µM; in the assay on A549 NSCLC it was 27.5 µM; with OVCAR-8 ovarian, 39 µM; in the assay on SK-OV-3 ovarian, 67 µM.

On to `O=C(CSC(=S)N1CCCCC1)Nc1nc2c(s1)CCCC2`, for which the TGI in the assay on IGROV1 ovarian is above 100 µM; with SN12C renal, above 100 µM; in the assay on RPMI-8226 leukemia, above 100 µM; in the assay with SW-620 colon, above 100 µM; in the assay on NCI-H23 lung, 92.7 µM; in the assay with COLO 205 colon, above 100 µM. The TGI with CCRF-CEM leukemia, with A549 NSCLC, with OVCAR-8 ovarian and in the assay with SK-OV-3 ovarian was above 100 µM each time.

As to `c1cc2c(cc1NC1=NCCO1)CCC2`, the TGI in the assay on IGROV1 ovarian, in the assay on SN12C renal, with RPMI-8226 leukemia, in the assay on SW-620 colon, with NCI-H23 lung and in the assay on COLO 205 colon was above 10 µM each time. Further, the TGI with CCRF-CEM leukemia, in the assay with A549 NSCLC, with OVCAR-8 ovarian and in the assay on SK-OV-3 ovarian was above 10 µM in each case.

As for `CCOC(=O)C1=C(C)CC2C(=O)OC(=O)C2C1(C)C` (centres undefined), the TGI in the assay on IGROV1 ovarian, in the assay with SN12C renal, in the assay on RPMI-8226 leukemia, in the assay on SW-620 colon, in the assay with NCI-H23 lung and with COLO 205 colon was above 100 µM throughout. For the same compound, the TGI with CCRF-CEM leukemia, with A549 NSCLC, in the assay with OVCAR-8 ovarian and with SK-OV-3 ovarian was above 100 µM each time.

For `O=C(Nc1ccc(F)cc1F)c1cc(I)ccc1O`, the GI50 with IGROV1 ovarian is 2.4 µM; in the assay with SN12C renal, 2.46 µM; in the assay with RPMI-8226 leukemia, 2.5 µM; with SW-620 colon it was 3.39 µM; in the assay on NCI-H23 lung it was 2.72 µM; with COLO 205 colon it was 5.95 µM. Moreover, the GI50 in the assay on CCRF-CEM leukemia was 4.05 µM; with A549 NSCLC, 3.1 µM; in the assay on OVCAR-8 ovarian, 3.23 µM; in the assay with SK-OV-3 ovarian, 1.12 µM. Moreover, the TGI is above 100 µM in the assay with IGROV1 ovarian; 8.54 µM in the assay with SN12C renal; 8.96 µM in the assay with RPMI-8226 leukemia; 90.7 µM with SW-620 colon; 10.4 µM with NCI-H23 lung; 21.7 µM with COLO 205 colon. The TGI in the assay on CCRF-CEM leukemia is above 100 µM; in the assay on A549 NSCLC, above 100 µM; with OVCAR-8 ovarian it was above 100 µM; in the assay on SK-OV-3 ovarian, 4.27 µM.

By GI50 is commonly meant the concentration at which growth is held to half of that of the control. Broadly, the TGI is the concentration giving total growth inhibition. Lower therefore signals greater sensitivity of the cells.
